Test results as given in US20240417387A1, “SULFONYLPIPERAZINYL COMPOUNDS FOR TREATMENT OF BACTERIAL INFECTIONS” (Hoffmann-La Roche Inc., priority 2021, published 2024).
≈ marks a conversion by molar mass, not a printed value.

Tests used:
[1] = system: Klebsiella pneumonia ATCC 43816; experiment: Minimal Inhibitory Concentration (MIC) broth dilution assay, K. pneumonia ATCC 43816; type: cell-based; conditions: Klebsiella pneumoniae, ATCC43816, 20 hours at 35° C., CAMHB, read-out: MIC K. p ATCC 43816
How it was run: (§1)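 Broth microdilution with twofold compound series in cation-adjusted Mueller Hinton broth, inoculum 5×10^5 CFU/mL, applied to each strain. Plates incubated 20 h at 35 °C in ambient air. MIC […] recorded as the lowest concentration with no visible growth, read by eye.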

[2] = system: efflux-deficient Escherichia coli strains; conditions: reported in Bioorganic Chemistry (2020), 102, 104055; cited from earlier work
LPS synthesis pathway = conditions: reported in Bioorganic Chemistry (2020), 102, 104055; cited from earlier work
[3] = system: Escherichia coli BW 25113; experiment: Minimal Inhibitory Concentration (MIC) broth dilution assay, E. coli BW 25113; type: cell-based; conditions: Escherichia coli, BW25113, 20 hours at 35° C., CAMHB, read-out: MIC E. coli K-12 BW 25113
How it was run: as §1

[4] = Human microsome stability assay; type: in vitro ADME; conditions: human liver microsomes 0.5 mg/mL, 37° C., pH 7.4, NADPH regenerating system
How it was run: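 Compound […] with 0.5 mg/mL human liver microsomal protein in 100 mM potassium phosphate pH 7.4, 10 min preincubation at 37 °C, started with NADPH regenerating system. Sampled 0–30 min, remaining compound by LC-MS/MS; clearance binned low <7, medium 7–16.2, high >16.2 mL/min/kg.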

[5] = system: Escherichia coli ATCC 25922; experiment: Minimal Inhibitory Concentration (MIC) broth dilution assay, E. coli ATCC 25922; type: cell-based; conditions: Escherichia coli, ATCC25922, 20 h, read-out: MIC E. coli ATCC 25922
How it was run: as §1

[6] = biological target: Escherichia coli UDP-2,3-diacylglucosamine hydrolase (LpxH) (Escherichia coli (strain K12), UniProt P43341); experiment: Enzymatic IC50 assay of Escherichia coli LpxH (UMP/CMP-Glo luminescence); type: biochemical; conditions: Enzymatic IC50 against Escherichia coli LpxH; read-out: IC50 (converted)
How it was run: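 LpxH (2 nM) preincubated 10 min at room temperature with compound (100 μM to 1.7 nM) in Tris-HCl pH7.5 buffer with 2.5 mM MnCl2, then reacted with 5 μM UDP-DAG for 20 min. Reaction heat-stopped at 95° C.; released UMP converted to ATP and read by luciferase luminescence (UMP/CMP-Glo).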

Sequence of Escherichia coli UDP-2,3-diacylglucosamine hydrolase (LpxH) (P43341 whole entry): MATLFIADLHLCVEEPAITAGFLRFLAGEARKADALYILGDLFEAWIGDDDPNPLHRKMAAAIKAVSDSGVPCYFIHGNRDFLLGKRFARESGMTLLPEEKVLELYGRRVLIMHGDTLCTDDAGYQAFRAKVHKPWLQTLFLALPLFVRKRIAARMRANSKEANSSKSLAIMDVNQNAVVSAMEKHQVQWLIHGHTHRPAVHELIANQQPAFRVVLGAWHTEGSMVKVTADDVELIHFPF

Structure (SMILES)	MIC [1] [µg/mL]	antibiotic activity against efflux-deficient Escherichia coli strains [2]	LPS synthesis pathway inhibition activity (LPS synthesis pathway)	MIC [3] [µg/mL]	Clearance of Human microsome [4] [mL/min/kg]	MIC [5] [µg/mL]	IC50 [6] [nM]
CC(=O)N1CCc2cc(S(=O)(=O)N3CCN(c4cc(Cl)cc(C(F)(F)F)c4)CC3)ccc21 [JH-LPH-33, reference compound]	> 24	antibiotic activity	LPS synthesis pathway inhibition activity	> 24	20.94	> 24	293
C[N+]1(CCCNC(=O)c2ccc(C(F)(F)c3cc(Cl)nc(N4CCN(S(=O)(=O)c5ccc(N6C[C@H](N)CC6=O)cc5)CC4)c3)cc2)CCCC1 [Example 038, 4-[[2-Chloro-6-[4-[4-[(4R)-4-amino-2-oxo-pyrrolidin-1-yl]phenyl]sulfonylpiperazin-1-yl]-4-pyridyl]-difluoro-methyl]-N-[3-(1-methylpyrrolidin-1-ium-1-yl)propyl]benzamide]	1.5	–	–	1.5	6.80	1.5	4.1
NCCCN(CCCN)C(=O)C12CCC(C(F)(F)c3cc(Cl)nc(N4CCN(S(=O)(=O)c5ccc(N6C[C@H](N)CC6=O)cc5)CC4)c3)(CC1)CC2 [Example 045, N,N-bis(3-aminopropyl)-4-[[2-chloro-6-[4-[4-[(4R)-4-amino-2-oxo-pyrrolidin-1-yl]phenyl]sulfonylpiperazin-1-yl]-4-pyridyl]-difluoro-methyl]bicyclo[2.2.2]octane-1-carboxamide]	0.62 (≈ 0.825 µM)	–	–	1.2 (≈ 1.6 µM)	8.79	0.62 (≈ 0.825 µM)	18.6
CN(CCN)C(=O)[C@H]1CC[C@H](C(F)(F)c2cc(Cl)nc(N3CCN(S(=O)(=O)c4ccc(N5C[C@H](N)CC5=O)cc4)CC3)c2)CC1 [Example 030, Trans-N-(2-aminoethyl)-4-[[2-chloro-6-[4-[4-[(4R)-4-amino-2-oxo-pyrrolidin-1-yl]phenyl]sulfonylpiperazin-1-yl]-4-pyridyl]-difluoro-methyl]-N-methyl-cyclohexanecarboxamide]	1.7 (≈ 2.54 µM)	–	–	1.7 (≈ 2.54 µM)	6.90	1.1 (≈ 1.65 µM)	8.98
CC(CN)NC(=O)[C@H]1CC[C@H](C(F)(F)c2cc(Cl)nc(N3CCN(S(=O)(=O)c4ccc(N5C[C@H](N)CC5=O)cc4)CC3)c2)CC1 (stereo partly drawn) [Example 008, Trans-N-(2-amino-1-methyl-ethyl)-4-[[2-chloro-6-[4-[4-[(4R)-4-amino-2-oxo-pyrrolidin-1-yl]phenyl]sulfonylpiperazin-1-yl]-4-pyridyl]-difluoro-methyl]cyclohexanecarboxamide]	0.52 (≈ 0.778 µM)	–	–	1 (≈ 1.5 µM)	8.07	0.52 (≈ 0.778 µM)	5.99
CN1CC2(C1)CN(C(=O)[C@H]1CC[C@H](C(F)(F)c3cc(Cl)nc(N4CCN(S(=O)(=O)c5ccc(N6C[C@H](N)CC6=O)cc5)CC4)c3)CC1)C2 [Example 005, Trans-(4R)-4-amino-1-[4-[4-[6-chloro-4-[difluoro-[4-(6-methyl-2,6-diazaspiro[3.3]heptane-2-carbonyl)cyclohexyl]methyl]-2-pyridyl]piperazin-1-yl]sulfonylphenyl]pyrrolidin-2-one]	2.2 (≈ 3.12 µM)	–	–	3.3 (≈ 4.67 µM)	6.15	2.2 (≈ 3.12 µM)	4.25
NCCNCCNC(=O)[C@H]1CC[C@H](C(F)(F)c2cc(Cl)nc(N3CCN(S(=O)(=O)c4ccc(N5C[C@H](N)CC5=O)cc4)CC3)c2)CC1 [Example 072, Trans-N-[2-(2-aminoethylamino)ethyl]-4-[[2-chloro-6-[4-[4-[(4R)-4-amino-2-oxo-pyrrolidin-1-yl]phenyl]sulfonylpiperazin-1-yl]-4-pyridyl]-difluoro-methyl]cyclohexanecarboxamide]	1.1 (≈ 1.58 µM)	–	–	0.57 (≈ 0.817 µM)	6.15	1.1 (≈ 1.58 µM)	4.3
NC1CC(NC(=O)[C@H]2CC[C@H](C(F)(F)c3cc(Cl)nc(N4CCN(S(=O)(=O)c5ccc(N6C[C@H](N)CC6=O)cc5)CC4)c3)CC2)C1 (stereo partly drawn) [Example 007, Trans-N-(3-aminocyclobutyl)-4-[[2-chloro-6-[4-[4-[(4R)-4-amino-2-oxo-pyrrolidin-1-yl]phenyl]sulfonylpiperazin-1-yl]-4-pyridyl]-difluoro-methyl]cyclohexanecarboxamide]	0.53 (≈ 0.779 µM)	–	–	1.1 (≈ 1.62 µM)	6.90	1.1 (≈ 1.62 µM)	7.35
